Where two headings read alike, the source gives them in different places.
Columns and labels:
S. aureus 101 [1] = experiment: checkerboard synergy assay with iclaprim; format: cell-based, Staphylococcus aureus; conditions: antibiotic in combination with iclaprim
S. pneumoniae 1/1 [2] = experiment: MIC determination; format: cell-based, Streptococcus pneumoniae; conditions: for MIC: Streptococcus pneumoniae, read-out: Minimum inhibitory concentrations (MIC)
[3] = test system: Klebsiella pneumoniae ATCC 33495; experiment: MIC determination; format: cell-based; conditions: for MIC: Klebsiella pneumoniae, read-out: Minimum inhibitory concentrations (MIC)
Summary of the method: (§1)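 Visible-growth endpoint after 18 h, 37 °C. Cation-adjusted Mueller-Hinton broth was used for K. pneumoniae and S. aureus in ambient air; H. influenzae (HTM) and M. catarrhalis (Brain Heart Infusion) were incubated under 5% CO2.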

[4] = test system: Streptococcus pneumoniae ATCC 49619; experiment: MIC determination; format: cell-based; conditions: for MIC: Streptococcus pneumoniae, read-out: Minimum inhibitory concentrations (MIC)
[5] = test system: Haemophilus influenzae ATCC 49766; experiment: MIC determination; format: cell-based; conditions: for MIC: Haemophilus influenzae, read-out: Minimum inhibitory concentrations (MIC)
Summary of the method: as §1

[6] = test system: Moraxella catarrhalis RA 21; experiment: MIC determination; format: cell-based; conditions: for MIC: Moraxella catarrhalis, read-out: Minimum inhibitory concentrations (MIC)
Summary of the method: as §1

[7] = test system: Staphylococcus aureus ATCC 25923; experiment: MIC determination; format: cell-based; conditions: for MIC: Staphylococcus aureus, read-out: Minimum inhibitory concentrations (MIC)
Summary of the method: as §1

S. pneumoniae 1/1 [8] = experiment: checkerboard synergy assay with iclaprim; format: cell-based, Streptococcus pneumoniae; conditions: antibiotic in combination with iclaprim
[9] = test system: Klebsiella pneumoniae ATCC 33495; experiment: checkerboard synergy assay with iclaprim; format: cell-based; conditions: antibiotic in combination with iclaprim; K. pneumoniae 33495
[10] = test system: Streptococcus pneumoniae ATCC 49619; experiment: checkerboard synergy assay with iclaprim; format: cell-based; conditions: antibiotic in combination with iclaprim; S. pneumoniae 49619
[11] = test system: Haemophilus influenzae ATCC 49766; experiment: checkerboard synergy assay with iclaprim; format: cell-based; conditions: antibiotic in combination with iclaprim; H. influenzae 49766
[12] = test system: Moraxella catarrhalis RA 21; experiment: checkerboard synergy assay with iclaprim; format: cell-based; conditions: antibiotic in combination with iclaprim; M. catarrhalis RA 21
[13] = test system: Staphylococcus aureus ATCC 25923; experiment: checkerboard synergy assay with iclaprim; format: cell-based; conditions: antibiotic in combination with iclaprim; S. aureus 25923
S. aureus 101 [14] = experiment: MIC determination; format: cell-based, Staphylococcus aureus
Summary of the method: as §1

[15] = test system: Staphylococcus aureus, Streptococcus pneumoniae, Haemophilus influenzae, Moraxella catarrhalis and Klebsiella pneumoniae; experiment: checkerboard synergy assay with iclaprim, strains pooled; format: cell-based; conditions: checkerboard experiments, all strains
Experimental: The synergistic potential of iclaprim against Gram-positive and Gram-negative bacteria was determined using the checkerboard assay as described in Eliopoulos GM and Moellering, Jr. RC (1991), Antimicrobial combinations, pp. 432-492, in V. Lorian (ed.), Antibiotics in laboratory medicine, 3rd Ed., The Williams & Wilkins Co., Baltimore, the entire disclosure of which is herein incorporated by reference, allowing multiple test concentrations of iclaprim to be assayed in the presence of various concentrations of the other antibiotic in microtiter plates. The same growth media and conditions were used as described in 3.2 below.
Two different dilutions were used for iclaprim depending on the MIC determined for the bacterium. […] Iclaprim and the other antibiotic being tested were also dispensed alone in the last row and in the last column, respectively, as controls.
The Fractional Inhibitory Concentrations (FIC) for each added agent were calculated and used to determine the sum of FIC (ΣFIC) indicative of the synergistic potential of a given combination as described in Veyssier P. (1999), Inhibiteurs de la dihydrofolate reductase, nitrohétérocycles (furanes) et 8-hydroxyquinoleines, pp. 995-1027, in A. Bryskier (ed.), Antibiotiques agents antibatériens et antifongiques, 1st Ed., Ellipses Edition Marketing SA, Paris, the entire disclosure of which is herein incorporated by reference. Synergy was defined whereby the ΣFIC was <0.5, indifference (no synergy nor antagonism) whereby ΣFIC was ≥0.5 but ≤4, and antagonism whereby ΣFIC was >4. Additivity as a special form of indifference was defined whereby the ΣFIC was ≥0.5 but <1, for example as described in Stevens, D L et al. (1998), In vitro antimicrobial effects of various combinations of penicillin and clindamycin against four strains of Streptococcus pyogenes, J. Antimicrob. Chemother. 42: 1266-1268, the entire disclosure of which is herein incorporated by reference.

[16] = S. pneumoniae 1/1, 18 hours at 37° C., 5% CO2
[17] = ATCC33495, K. pneumonia 33495, 18 hours at 37° C.
[18] = ATCC49619, S. pneumoniae 49619, 18 hours at 37° C., 5% CO2
[19] = ATCC49766, H. Influenza 49766, 18 hours at 37° C., 5% CO2
[20] = RA21, M. catarrhalis RA 21, 18 hours at 37° C., 5% CO2
[21] = ATCC25923, S. aureus 25923, 18 hours at 37° C.
[22] = Staphylococcus aureus, 101, 18 h; read-out: Minimum inhibitory concentrations (MIC)
[23] = Staphylococcus aureus, 101, 18 h, read-out: Minimum inhibitory concentrations (MIC)

| Compound | Σ FIC (S. aureus 101 [1]) | MIC (S. pneumoniae 1/1 [2]; [16]) [µg/mL] | MIC [3, 17] [µg/mL] | MIC [4, 18] [µg/mL] | MIC [6, 20] [µg/mL] | MIC [7, 21] [µg/mL] | Σ FIC (S. pneumoniae 1/1 [8]) | Con (Conclusion) [9] | Σ FIC [9] | Σ FIC [10] | Con (Conclusion) [11] | Σ FIC [11] | Con (Conclusion) [12] | Σ FIC [12] | Σ FIC [13] | MIC (S. aureus 101 [14]; [22]) [µg/mL] | MIC ([5]; ATCC49766, 18 h) [µg/mL] | further results |
| --- | --- | --- | --- | --- | --- | --- | --- | --- | --- | --- | --- | --- | --- | --- | --- | --- | --- | --- |
| [H]/N=C(/N)N[C@H]1[C@H](O)[C@@H](O)[C@H](O[C@@H]2O[C@@H](C)[C@](O)(C=O)[C@H]2O[C@@H]2O[C@@H](CO)[C@H](O)[C@@H](O)[C@@H]2NC)[C@@H](N/C(N)=N\[H])[C@@H]1O [Streptomycin] | 1.13-1.50 | > 128 | 64 | 32 | 8 | 4 | 1.01-1.50 | Ad (Additivity (Ad)) | 0.63-1.06 | 1.00-1.25 | Ind (Indifference (Ind)) | 1.02-1.50 | Ind (Indifference (Ind)) | 1.06-1.50 | 1.13-1.50 | 8 |  | MIC [5, 19]: 0.5 µg/mL |
| Cc1cc(NS(=O)(=O)c2ccc(N)cc2)no1 [Sulfamethoxazole, N1-(5-methyl-3-isoxazolyl)sulfanilamide] |  | > 128 | > 128 | > 128 | > 128 | > 128 |  | Ad (Additivity (Ad)) |  |  | Syn (Synergy (Syn)) |  | Syn (Synergy (Syn)) |  |  | > 128 | 128 | synergistic potential with iclaprim [15]: highly synergistic |
| CN(C)[C@@H]1C(O)=C(C(N)=O)C(=O)[C@@]2(O)C(O)=C3C(=O)c4c(O)cccc4[C@@](C)(O)[C@H]3C[C@@H]12 [Tetracycline, Tetracyclin] | 1.02-2.50 | 16 | 128 | 0.25 | 0.25 | 0.5 | 0.75-1.13 | Ad (Additivity (Ad)) | 0.56-1.03 | 0.75-1.25 | Ad (Additivity (Ad)) | 0.56-1.25 | Ind (Indifference (Ind)) | 1.13-1.50 | 2.05-2.48 | 128 | 0.5 |  |
| C=C(NC(=O)C(=C)NC(=O)c1csc(C2=N[C@@H]3c4csc(n4)[C@H]4NC(=O)c5csc(n5)[C@H]([C@](C)(O)[C@@H](C)O)NC(=O)[C@H]5CSC(=N5)/C(=C/C)NC(=O)[C@H]([C@@H](C)O)NC(=O)c5csc(n5)[C@]3(CC2)NC(=O)[C@H](C)NC(=O)C(=C)NC(=O)[C@H](C)NC(=O)[C@H]([C@@H](C)CC)N[C@@H]2C=Cc3c([C@H](C)O)cc(nc3[C@H]2O)C(=O)O[C@@H]4C)n1)C(N)=O [Thiostrepton] | 1.50-2.25 |  |  |  |  |  | 1.12-1.50 | Ind (Indifference (Ind)) | 1.01-1.50 | 1.12-1.50 | Ind (Indifference (Ind)) | 1.02-1.50 | Ind (Indifference (Ind)) | 1.02-1.50 | 1.02-1.50 |  | 32 | MIC (S. pneumoniae 1/1 [2]; 1/1, 18 h): 0.063 µg/mL; MIC ([3]; ATCC33495, 18 h): > 128 µg/mL; MIC ([4]; ATCC49619, 18 h): 0.063 µg/mL; MIC ([6]; RA21, 18 h): 0.5 µg/mL; MIC ([7]; ATCC25923, 18 h): 0.5 µg/mL; MIC (S. aureus 101 [14]; [23]): 0.5 µg/mL |
| NC[C@H]1O[C@H](O[C@H]2[C@H](O)[C@@H](O[C@H]3O[C@H](CO)[C@@H](O)[C@H](N)[C@H]3O)[C@H](N)C[C@@H]2N)[C@H](N)C[C@@H]1O [Tobramycin] | 1.01-1.50 | 32 | 1 | 32 | 4 | 0.5 | 0.63-1.13 | Ad (Additivity (Ad)) | 0.52-1.13 | 1.00-1.25 | Ind (Indifference (Ind)) | 1.02-1.50 | Ad (Additivity (Ad)) | 0.63-1.25 | 0.99-1.25 | > 128 |  | MIC [5, 19]: 0.5 µg/mL |
| CN[C@H](CC(C)C)C(=O)N[C@H]1C(=O)N[C@@H](CC(N)=O)C(=O)N[C@H]2C(=O)N[C@H]3C(=O)N[C@H](C(=O)N[C@H](C(=O)O)c4cc(O)cc(O)c4-c4cc3ccc4O)[C@H](O)c3ccc(c(Cl)c3)Oc3cc2cc(c3O[C@@H]2O[C@H](CO)[C@@H](O)[C@H](O)[C@H]2O[C@H]2C[C@](C)(N)[C@H](O)[C@H](C)O2)Oc2ccc(cc2Cl)[C@H]1O [Vancomycin] | 0.75-1.25 |  |  |  |  |  | 0.56-1.03 | Ind (Indifference (Ind)) | 1.01-1.50 | 1.00-1.25 | Ind (Indifference (Ind)) | 1.00-1.25 | Ad (Additivity (Ad)) | 0.75-1.13 | 1.03-1.50 |  | 128 | MIC (S. pneumoniae 1/1 [2]; 1/1, 18 h): 0.5 µg/mL; MIC ([3]; ATCC33495, 18 h): > 128 µg/mL; MIC ([4]; ATCC49619, 18 h): 0.5 µg/mL; MIC ([6]; RA21, 18 h): > 128 µg/mL; MIC ([7]; ATCC25923, 18 h): 2 µg/mL; MIC (S. aureus 101 [14]; [23]): 2 µg/mL |
| Gentamicin | 1.01-1.50 |  |  |  |  |  | 1.06-1.50 | Ad (Additivity (Ad)) | 0.63-1.25 | 0.75-1.13 | Ind (Indifference (Ind)) | 1.02-1.13 | Ind (Indifference (Ind)) | 1.00-1.25 | 2.05-2.48 |  |  | Con (Conclusion) (S. aureus 101 [1]): Ind (Indifference (Ind)); Minimum inhibitory concentrations (MIC) (S. pneumoniae 1/1 [2]; [16]): 32 µg/mL; Minimum inhibitory concentrations (MIC) ([3]; K. pneumonia 33495, 18 hours at 37° C.): 1 µg/mL; Minimum inhibitory concentrations (MIC) ([4]; S. pneumoniae 49619, 18 hours at 37° C., 5% CO2): 32 µg/mL; Minimum inhibitory concentrations (MIC) ([5]; H. Influenza 49766, 18 hours at 37° C., 5% CO2): 2 µg/mL; Minimum inhibitory concentrations (MIC) ([6]; M. catarrhalis RA 21, 18 hours at 37° C., 5% CO2): 2 µg/mL; Minimum inhibitory concentrations (MIC) ([7]; S. aureus 25923, 18 hours at 37° C.): 0.5 µg/mL; Con (Conclusion) (S. pneumoniae 1/1 [8]): Ind (Indifference (Ind)); Con (Conclusion) [10]: Ad (Additivity (Ad)); Con (Conclusion) [13]: Ind (Indifference (Ind)); Minimum inhibitory concentrations (MIC) (S. aureus 101 [14]; S. aureus 101; 18 hours at 37° C.): >128 µg/mL |

Reference: patent US20200038399A1, “FORMULATIONS, METHODS, KIT, AND DOSAGE FORMS FOR TREATING BACTERIAL INFECTION” (Motif BioSciences Inc., priority 2016, published 2020)
